Results on five compounds are retold here after patent US20030134842A1, “METHODS FOR THE TREATMENT OR PREVENTION OF INFLAMMATORY DISEASES CHARACTERIZED BY ABNORMAL CELL PROLIFERATION” (priority 1997, published 2003).

One data set deals with T1, red cell Gardos channel (Mus musculus, UniProt O89109).
T1 construct: host or cells: red cells of the SAD mouse, in vivo
The note with it: SAD mouse, oral administration; cited from earlier work.

Data set [1] relates to NIH 3T3 mouse fibroblast cells. The data set can be described thus: Mitogenic assay (mitogen-induced cell proliferation). Particulars: for IC50: Mus musculus, NIH3T3, NIH 3T3 mouse fibroblast cells, mitogen-induced cell proliferation. Type of data set: cell-based.
Another data set addresses T2, Gardos channel (Homo sapiens, UniProt O15554).
T2 construct: reduces erythrocyte dehydration in patients with sickle cell disease; host or cells: erythrocytes of sickle cell patients, in vivo
Particulars: patients with sickle cell disease, oral; cited from earlier work.

Data set [2] deals with MM-RU human melanoma cells. Particulars: SCID mice inoculated with MM-RU human melanoma cells, daily administration; cited from earlier work.
Data set [3] has as its target T3, Ca2+-activated potassium channel (Gardos channel) of erythrocytes (Homo sapiens, UniProt O15554).
T3 construct: endogenous in cells; host or cells: erythrocytes
The data set can be described thus: Gardos channel assay. It counts as cell-based. Particulars: for inhibition at 10 µM: 10 μM compound.

For a further data set, the system named is HT29. The data set can be described thus: SRB antiproliferative assay HT29. It counts as cell-based. The note with it: Homo sapiens. The source says:
(§1) The cells were passaged using Trypsin (Gibco).
In general terms: Sulforhodamine B stains cellular protein and so reports cell mass.

The next data set concerns A549. The data set can be described thus: SRB antiproliferative assay A549. Type of data set: cell-based. The note with it: Homo sapiens.
Source text: as §1

Another data set deals with MCF7. The data set can be described thus: SRB antiproliferative assay MCF7. It counts as cell-based. The note with it: Homo sapiens.
Source text: as §1

A further data set deals with U118MG. The data set can be described thus: SRB antiproliferative assay U118MG. Type of data set: cell-based. Particulars: Homo sapiens, U-118-MG.
Source text: as §1

The test system of another data set is MMRU. The data set can be described thus: SRB antiproliferative assay MMRU. Type of data set: cell-based. The note with it: Homo sapiens.
Source text: as §1

The subject of another data set is HEPG2. The data set can be described thus: SRB antiproliferative assay HEPG2. Type of data set: cell-based. The note with it: Homo sapiens.
Source text: as §1

Another data set deals with SK-MEL-28. The data set can be described thus: SRB antiproliferative assay SK-MEL-28. The note with it: Homo sapiens; SK-MEL-28 (Melanoma), 5% FCS/5 day incubation; read-out: Test Compound IC50. It counts as cell-based.
Source text: as §1

A further data set has as its system HeLa. The data set can be described thus: SRB antiproliferative assay HeLa. It counts as cell-based. The note with it: Homo sapiens; HeLa (Cervical), 5% FCS/5 day incubation; read-out: Test Compound IC50.
Source text: as §1

For a further data set, the system named is CaSki. The data set can be described thus: SRB antiproliferative assay CaSki. It counts as cell-based. The note with it: Homo sapiens, Ca-Ski; CaSki (Cervical), 5% FCS/5 day incubation; read-out: Test Compound IC50.
Source text: as §1

For a further data set, the system named is MDA-MB-23. The data set can be described thus: SRB antiproliferative assay MDA-MB-23. Type of data set: cell-based. Particulars: MDA-MB-23 (Breast), 5% FCS/5 day incubation; read-out: Test Compound IC50.
Source text: as §1

The test system of a further data set is HCT-15. The data set can be described thus: SRB antiproliferative assay HCT-15. The note with it: Homo sapiens; HCT-15 (Colon), 5% FCS/5 day incubation; read-out: Test Compound IC50. Type of data set: cell-based.
Source text: as §1

The test system of another data set is DU-145. The data set can be described thus: SRB antiproliferative assay DU-145. Type of data set: cell-based. Particulars: Homo sapiens; DU-145 (Prostate), 5% FCS/5 day incubation; read-out: Test Compound IC50.
Source text: as §1

A further data set has as its system SK-OV-3. The data set can be described thus: SRB antiproliferative assay SK-OV-3. It counts as cell-based. The note with it: Homo sapiens; SK-OV-3 (Ovary), 5% FCS/5 day incubation; read-out: Test Compound IC50.
Source text: as §1

A further data set concerns ACHN. The data set can be described thus: SRB antiproliferative assay ACHN. It counts as cell-based. The note with it: Homo sapiens; ACHN (Renal), 5% FCS/5 day incubation; read-out: Test Compound IC50.
Source text: as §1

In the next data set the test system is HTB174. The data set can be described thus: SRB antiproliferative assay HTB174. It counts as cell-based. The note with it: HTB174 (Lung), 5% FCS/5 day incubation; read-out: Test Compound IC50.
Source text: as §1

The test system of another data set is L929. The data set can be described thus: SRB assay normal cells L929. Type of data set: cell-based. Particulars: L929 (Normal mouse), 5% FCS/5 day incubation; read-out: Test Compound IC50.
Source text: as §1

A further data set relates to 3T3. The data set can be described thus: SRB assay normal cells 3T3. Type of data set: cell-based. Particulars: NIH3T3; 3T3 (Normal mouse), 5% FCS/5 day incubation; read-out: Test Compound IC50.
Source text: as §1

The test system of a further data set is HUVEC. The data set can be described thus: SRB assay normal cells HUVEC. Type of data set: cell-based. Particulars: HUVEC (Normal human), 5% FCS/5 day incubation; read-out: Test Compound IC50.
Source text: as §1

For another data set, the system named is GM. The data set can be described thus: SRB assay normal cells GM. Type of data set: cell-based. Particulars: GM (Normal human), 5% FCS/5 day incubation; read-out: Test Compound IC50.
Source text: as §1

Setting [4] is: HT-29, HT29, 5% FCS/3 days, read-out: Test Compound IC50 Value in Cell Lines.
The mark [5] stands for this setting: A549, A549, 5% FCS/3 days, read-out: Test Compound IC50 Value in Cell Lines.
Where [6] appears, read: MCF7, 5% FCS/3 days, read-out: Test Compound IC50 Value in Cell Lines.
Setting [7] is: U118MG, 5% FCS/3 days, read-out: Test Compound IC50 Value in Cell Lines.
[8] abbreviates: MMRU, 5% FCS/3 days, read-out: Test Compound IC50 Value in Cell Lines.
[9] abbreviates: HEPG2, 5% FCS/3 days, read-out: Test Compound IC50 Value in Cell Lines.

Each structure is given as a SMILES string. Where two headings read alike, the source gives them in different places. Where only a bound is given, the exact number is not on record here.

T3 sequence (O15554 whole entry): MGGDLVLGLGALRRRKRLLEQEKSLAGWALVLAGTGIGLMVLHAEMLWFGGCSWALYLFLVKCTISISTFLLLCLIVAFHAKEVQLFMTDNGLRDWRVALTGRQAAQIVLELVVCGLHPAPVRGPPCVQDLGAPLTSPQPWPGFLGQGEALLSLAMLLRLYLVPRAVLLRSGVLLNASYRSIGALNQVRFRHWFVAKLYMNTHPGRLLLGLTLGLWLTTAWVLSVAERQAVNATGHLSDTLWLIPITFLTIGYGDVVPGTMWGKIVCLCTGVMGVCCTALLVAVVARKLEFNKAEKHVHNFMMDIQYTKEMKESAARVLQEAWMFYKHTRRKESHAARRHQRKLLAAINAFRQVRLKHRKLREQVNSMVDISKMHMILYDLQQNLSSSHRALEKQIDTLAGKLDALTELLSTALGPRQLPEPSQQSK
T1 sequence (O89109 whole entry): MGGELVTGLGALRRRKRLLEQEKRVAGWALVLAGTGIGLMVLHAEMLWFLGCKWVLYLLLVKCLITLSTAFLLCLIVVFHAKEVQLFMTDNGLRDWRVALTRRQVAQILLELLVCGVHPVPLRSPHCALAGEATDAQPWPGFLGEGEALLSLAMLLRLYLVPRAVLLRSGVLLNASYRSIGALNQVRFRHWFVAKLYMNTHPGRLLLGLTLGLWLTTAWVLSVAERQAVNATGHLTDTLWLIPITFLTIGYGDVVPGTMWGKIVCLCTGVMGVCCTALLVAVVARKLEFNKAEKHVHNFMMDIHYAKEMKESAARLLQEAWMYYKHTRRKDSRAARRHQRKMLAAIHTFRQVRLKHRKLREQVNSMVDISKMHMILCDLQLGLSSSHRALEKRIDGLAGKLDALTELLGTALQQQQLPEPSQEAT
T2 sequence (O15554 whole entry): as the sequence (O15554 whole entry) above

For the compound `Clc1ccccc1C(c1ccccc1)(c1ccccc1)n1ccnc1` [Clotrimazole], on red cell Gardos channel, the “red cell Gardos channel, K+ content, MCHC, cell density” value is “inhibition of the red cell Gardos channel, increased red cell K^+ content, a decreased mean cell hemoglobin concentration (MCHC) and decreased cell density”. For the same compound, the “Mitogenic Assay Inhibition” value in data set [1] (10 µM compound, NIH 3T3 mouse fibroblast cells) was 93.0%. The “Gardos channel inhibition and erythrocyte dehydration” value on Gardos channel was “induces inhibition of the Gardos channel and reduces erythrocyte dehydration”. For the same compound, the “number of lung metastases” value in data set [2] is recorded as “significant reduction in the number of lung metastases observed”.

Regarding `COC(=O)N1Cc2ccccc2C(c2ccccc2Cl)c2ccccc21` (centres unmarked) [Compound 9, N-methoxycarbonyl-11-(2′-chlorophenyl)-5,6-dihydro-11H-dibenz[b,e]azepine], the melting point – broadly, the temperature of the solid-liquid transition – lay within 159 to 161 °C. Besides, in data set [3], the concentration for half-maximal inhibition (IC50) – broadly, the concentration needed to halve the response being measured – lay in the range of 0.085 to 0.093 µM and the inhibition (commonly how much of the control response was suppressed) at 10 µM stood at 97.3%. This compound registered an IC50 in [1] of 2.1 µM.

On to `O=C(Oc1ccccc1)N1Cc2ccccc2C(c2ccccc2Cl)c2ccccc21` (centres unmarked) [Compound 26, N-phenoxycarbonyl-11-(2′-chlorophenyl)-5,6-dihydro-11H-dibenz[b,e]azepine], for which the melting point was in the range of 95 to 99 °C. In data set [3], this compound displayed an IC50 of more than 10 µM and an inhibition at 10 µM of 0.8%. Moreover, the IC50 in data set [1] is 0.04 to 0.9 µM. Besides, in the data set on HT29 (setting [4]), the half-maximal inhibitory concentration (IC50) stood at 7.2 µM. In addition, the IC50 with A549 (setting [5]) worked out at 7 µM. In addition, the IC50 in the data set on MCF7 (setting [6]) was found to be 5.9 µM. Besides, the IC50 with U118MG (setting [7]) was 5.7 µM. Also, in the data set on MMRU (setting [8]), the IC50 was 4.9 µM. The 50% inhibitory concentration (IC50) with HEPG2 (setting [9]) was 5.4 µM.

`O=C(Oc1ccccc1)N1Cc2ccccc2C(c2ccccc2)c2ccccc21` (centres unmarked) [Compound 14, N-phenoxycarbonyl-11-phenyl-5,6-dihydro-11H-dibenz[b,e]azepine] registered a melting point of 155 to 165 °C. In data set [3], this compound came in with a concentration for half-maximal inhibition (IC50) of more than 10 µM and an inhibition at 10 µM of 14.8%. This compound came in with an IC50 in [1] of 0.04 µM. The IC50 in the data set on HT29 (HT-29, HT29, 5% FCS/2 days, read-out: Test Compound IC50 Value in Cell Lines) was 10 µM. In addition, the 50% inhibitory concentration (IC50) in the data set with A549 (A549, A549, 5% FCS/2 days, read-out: Test Compound IC50 Value in Cell Lines) was more than 10 µM. The IC50 in the data set on MMRU (MMRU, 5% FCS/2 days, read-out: Test Compound IC50 Value in Cell Lines) was more than 10 µM.

On to `COc1cccc2c1C(c1ccccc1Cl)c1cc(Cl)ccc1N(C(=O)c1ccc([N+](=O)[O-])cc1)C2` (centres unmarked) [Compound 31], for which the half-maximal inhibitory concentration (IC50) with SK-MEL-28 was 0.3 µM; in [3] it was more than 10 µM; in the data set on HeLa it was 0.2 µM; in data set [1], 0.4 µM; with CaSki, 0.5 µM; in the data set with MDA-MB-23, 0.4 µM. In addition, the IC50 in the data set on HT29 (HT-29, HT29 (Colon), 5% FCS/5 day incubation, read-out: Test Compound IC50) was 0.2 µM; in the data set on HT29 (setting [4]) it was less than 1.25 µM; in the data set on HCT-15, 0.3 µM; with DU-145 it was 0.9 µM; in the data set on SK-OV-3, 0.6 µM; with ACHN it was 0.8 µM. Further, the IC50 with A549 (A549, A549 (Lung), 5% FCS/5 day incubation, read-out: Test Compound IC50) was 0.6 µM; in the data set on A549 (setting [5]) it was less than 1.25 µM; with HTB174, 0.2 µM; in the data set with L929 it was 0.9 µM; in the data set on MCF7 (MCF7 (Breast), 5% FCS/5 day incubation, read-out: Test Compound IC50) it was 0.7 µM; with MCF7 (setting [6]) it was less than 1.25 µM. The IC50 is 0.4 µM with U118MG (U118MG (CNS), 5% FCS/5 day incubation, read-out: Test Compound IC50); less than 1.25 µM in the data set with U118MG (setting [7]); more than 1 µM with 3T3; 0.8 µM with HUVEC; 0.2 µM in the data set on MMRU (MMRU (Melanoma), 5% FCS/5 day incubation, read-out: Test Compound IC50); less than 1.25 µM in the data set on MMRU (setting [8]). Also, the IC50 was 0.4 µM in the data set on HEPG2 (HEPG2 (Hepatocel), 5% FCS/5 day incubation, read-out: Test Compound IC50); less than 1.25 µM with HEPG2 (setting [9]); more than 1 µM in the data set with GM. Also, in data set [3], 10 µM produced 12.3% inhibition.
